Experimental data reported in publication PMC10144058, “New Hybrid Scaffolds Based on 5-FU/Curcumin: Synthesis, Cytotoxic, Antiproliferative and Pro-Apoptotic Effect” (Pharmaceutics, 2023).
Where two headings read alike, the source gives them in different places. Blank lines part the entries; values can stand above or below the molecule they belong to.

Legend:
Bel-7402/5-FU = tested on: Bel-7402/5-FU; parameters: method as in PMID 31080076; details: cited from earlier work
Bel7402 = tested on: Bel7402; parameters: method as in PMID 31080076; details: cited from earlier work
SW620 cells [1] = assay: Mitochondrial membrane potential (DiOC6/PI, flow cytometry); format: cell-based, human; details: SW620, treated with IC50, 48 h
Description: The fluorescent dyes PI and DIOC6 (3,3’-dihexyloxacarbocyanine iodide) were used to observe the depolarization of the mitochondrial membrane as well as possible cell membrane damage. For this method, 250,000 cells/well were initially seeded in 6-well culture plates during a 24 h adherence period at 37 °C in a 5% CO2 atmosphere. […] After treatment, cells were obtained by mechanical disaggregation, stained with DiOC6 and PI, and incubated at room temperature for 30 min in the dark. Ten thousand events were analyzed by flow cytometry with excitation at 488 nm and emission detection with green (530/15 nm) and red (610/20 nm) filters.

SW620 cells [2] = assay: Cell death induction (Annexin-V/PI, flow cytometry); format: cell-based, human; details: SW620, treated with IC50, 48 h
Description: For this method, 250,000 cells/well were initially seeded in 6-well culture plates during a 24 h adherence period at 37 °C in a 5% CO2 atmosphere. […] After treatment, cells were obtained by mechanical disaggregation, resuspended in a solution with Annexin-V-FLUOS and PI, and incubated for 20 min in the dark before flow cytometry analysis.

SW620 cells [3] = assay: Cell cycle analysis (PI, flow cytometry); format: cell-based, human; details: SW620, treated with IC50 value, 48 h
Description: The method used for the recognition of cell cycle phases (G0/G1, S, G2/M) was based on staining with a fluorescent dye (propidium iodide—PI), as a direct relationship between fluorescence intensity and DNA content can be established. For this method, 250,000 cells/well were initially seeded in 6-well culture plates with an adherence period of 24 h at 37 °C in a 5% CO2 atmosphere. […] After treatment, cells were obtained by mechanical disaggregation, and the cell pellet was centrifuged and washed with a versene buffer. The cell pellet was fixed with 1.8 mL of cold 70% ethanol and kept at 4 °C overnight. Subsequently, two washes with a versene buffer were performed, and the pellet was resuspended in 300 µL of PBS containing 0.25 mg/mL of RNAsa and 0.1 mg/mL of PI. After a 30 min period of dark incubation, the fluorescence of 10,000 cells was analyzed using a FACS Canto II flow cytometer. The PI signal was analyzed with excitation at 488 nm using a sapphire laser, and fluorescence was detected at 610 nm. The data analysis was performed with FlowJo 10.8.1 software.

[4] = tested on: caspase 3, caspase 7, caspase 8 and p53 in SW620 cells; assay: Apoptotic biomarkers (ELISA); format: cell-based, human; details: SW620, treated with IC50, 48 h, vs control
Description: To provide an approach to the possible molecular mechanisms through which the hybrid compounds induce an effect on the cell lines, different proteins related to the process of death by apoptosis were determined. For this method, 1,000,000 cells were initially seeded per Petri dish, with an adherence period of 24 h at 37 °C in a 5% CO2 atmosphere. […] Later, the consumed medium was discarded, and after the addition of the versene buffer, the cells were obtained by mechanical disaggregation. The cells were then lysed with a cell lysis buffer and centrifuged to obtain the supernatant, which was used to determine the biomarkers of interest by enzyme-linked immunosorbent assays. These ELISA kits were provided by Elabscience Biotechnology Co., Houston, TX, USA [26].

HaCaT cells = assay: Cell viability, sulforhodamine B (SRB) assay, non-malignant cells; format: cell-based; details: Homo sapiens
Description: (§1) SW480 (colon adenocarcinoma) and SW620 (derived metastatic) malignant cell lines, and the non-malignant lines HaCaT (human keratinocytes) and CHO-K1 (Chinese Hamster Ovary), were obtained from the European Collection of Authenticated Cell Cultures (ECACC, Porton Down, Salisbury, UK). The cells were maintained in Dulbecco’s Modified Eagle’s Medium (DMEM), supplemented with 10% equine serum previously inactivated at 56 °C, 1% penicillin/streptomycin, and 1% non-essential amino acids, and incubated at 37 °C in an atmosphere with 5% CO2. To carry out the experiments, the serum was diluted to 3% and additionally supplemented with […] insulin, […] transferrin, and 5 ng/mL selenium. Cells were used for experimentation when they reached 80–90% confluence, using a 1X trypsin enzymatic disintegration method. To avoid contamination by Mycoplasma spp., cell cultures were periodically analyzed by polymerase chain reaction (PCR).
(§2) Cell viability was evaluated with a sulforhodamine B (SRB) assay. This technique provides an index of protein contents in living and adherent cells, whose optical density can be related to cell concentration. Initially, 20,000 cells were seeded per well in 96-well culture plates. An initial adherence period of 24 h was performed at 37 °C, 5% CO2, and after this, the medium was replaced by another that contained the hybrid compounds in different concentrations. Then, the cells were left incubating for 24 and 48 h under the same conditions previously described. After the respective incubation times, the cells were fixed with trichloroacetic acid (50% v/v) for 1 h at 4 °C and stained with 0.4% (p/v) of SRB. Subsequently, washings with 1% acetic acid were carried out to eliminate possible nonspecific bindings, and after solubilization with 10 mM Tris-base, the absorbance was read at 492 nm in a microplate reader (Mindray MR-96A). All the experiments were carried out in triplicate.

SW480 cells [5] = assay: Cell viability, sulforhodamine B (SRB) assay; format: cell-based; details: Homo sapiens
Description: as §1, §2

SW620 cells [6] = assay: Cell viability, sulforhodamine B (SRB) assay; format: cell-based, human
Description: as §1, §2

SW620 cells [7] = assay: Antiproliferative activity (SRB, 0-8 days); format: cell-based, human; details: for viability at 2.5 µM / viability at 40 µM: Homo sapiens, read-out: Cell Viability (%) ± SE; for viability at 2.5 µM: SW620, 2.5 µM; for viability at 40 µM: SW620, 40 µM
Description: For this experiment, the same colorimetric method (SRB) from the evaluation of cell viability was used, although with some modifications. Initially, 2500 cells per well were seeded in 96-well culture plates, and a 24 h adherence period was performed at 37 °C in a 5% CO2 atmosphere. […] For this assay, incubation periods of 0, 2, 4, 6, and 8 days were used, and the fixation, staining, and reading conditions were the same as those previously described for the cytotoxicity assay.

CHO-K1 cells = assay: Cell viability, sulforhodamine B (SRB) assay, non-malignant cells; format: cell-based, Chinese Hamster; details: Cricetulus griseus
Description: as §1, §2

[8] = tested on: HT29 colorectal adenocarcinoma cells; parameters: method as in PMID 33652694; details: cited from earlier work
metastatic SW620 = tested on: metastatic SW620; parameters: method as in PMID 33652694; details: cited from earlier work
normal 3T3 cells = tested on: normal 3T3 cells; parameters: method as in PMID 31080076; details: normal 3T3 cells (mouse embryonic fibroblast cell line); cited from earlier work
SW620 cells [9] = tested on: SW620 cells; parameters: method as in PMID 36297411; details: cited from earlier work
SW480 cells [10] = tested on: SW480 cells; parameters: method as in PMID 36297411; details: cited from earlier work
SW620 cell line = tested on: SW620 cell line; parameters: method as in PMID 34062841; details: cited from earlier work
[11] = tested on: SW480 human colon adenocarcinoma cells; parameters: method as in PMID 34062841; details: cited from earlier work
SGC-7901 = tested on: SGC-7901; parameters: method as in PMID 30025345; details: cited from earlier work
SMMC-7721 = tested on: SMMC-7721; parameters: method as in PMID 30025345; details: cited from earlier work
U87 = tested on: U87; parameters: method as in PMID 30025345; details: cited from earlier work
MGC-803 = tested on: MGC-803; parameters: method as in PMID 30025345; details: cited from earlier work
U266 cells = tested on: U266 cells; parameters: method as in PMID 23784627; details: cited from earlier work
RPMI8226 cells = tested on: RPMI8226 cells; parameters: method as in PMID 23784627; details: cited from earlier work
MM1S cells = tested on: MM1S cells; parameters: method as in PMID 23784627; details: cited from earlier work
tubulin polymerization = tested on: tubulin polymerization; parameters: method as in PMID 27060762; details: in THP-1 tumor cells; read-out: IC50, inhibition of tubulin polymerization; cited from earlier work
THP-1 cell line = tested on: THP-1 cell line; parameters: method as in PMID 27060762; details: cited from earlier work
COLO-205 cell line = tested on: COLO-205 cell line; parameters: method as in PMID 27060762; details: cited from earlier work
HCT-116 cell line = tested on: HCT-116 cell line; parameters: method as in PMID 27060762; details: cited from earlier work
[12] = SW-620, 48 h, 2 days after plating
[13] = SW-620, 96 h, 4 days after plating
[14] = SW-620, 144 h, 6 days after plating
[15] = SW-620, 192 h, 8 days after plating

Compound: COc1cccc2c1C(=O)c1c(O)c3c(c(O)c1C2=O)C[C@@](O)(C(=O)CO)C[C@@H]3O[C@H]1C[C@H](N)[C@H](O)[C@H](C)O1 [Adriamycin]
IC50 (Bel-7402/5-FU): 1.14 µM
IC50 (Bel7402): 0.73 µM

IC50 (SW480 cells [5]; SW480, 24 h): 38.8 ± 5.46 µM
IC50 (SW480 cells [5]; SW480, 48 h): 18.2 ± 0.88 µM
IC50 (SW620 cells [6]; 48 h): 14.5 ± 1.31 µM
IC50 (SW620 cells [6]; Homo sapiens, SW-620, 24 h, 24 h): > 100 µM
IC50 (SW620 cells [6]; Homo sapiens, SW-620, 48 h, 48 h): 19.5 µM
Compound: COc1cc(/C=C/C(=O)c2ccc(OCCCCCCn3cc(Cn4cc(F)c(=O)[nH]c4=O)nn3)cc2)ccc1O [Compound 6e, (E)-5-fluoro-1-((1-(6-(4-(3-(4-hydroxy-3-methoxyphenyl)acryloyl)phenoxy)hexyl)-1H-1,2,3-triazol-4-yl)methyl)pyrimidine-2,4(1H,3H)-dione]
Dioc6 High population (live cells with high membrane polarization) (SW620 cells [1]): 96%
Dioc6 Low population (cells that lose membrane polarization) (SW620 cells [1]): 0%
PI+ population (membrane damage or dead cells) (SW620 cells [1]): 4.05%
changes in the mitochondrial membrane potential (SW620 cells [1]): do not induce significant changes
Annexin V/PI quadrant Q4 (viable cells) (SW620 cells [2]): 84.7%
Cell cycle distribution, G0/G1 (SW620 cells [3]): 20.6%
Cell cycle distribution, G2/M (SW620 cells [3]): 8.8%
Cell cycle distribution, S Phase (SW620 cells [3]): 24.5%
levels of executioner caspases 3 and 7 [4]: Significantly increased levels
IC50 (HaCaT cells; 24 h): 76.9 ± 5.87 µM
IC50 (HaCaT cells; 48 h): 19.7 ± 1.99 µM
viability at 2.5 µM (SW620 cells [7]; [12]): 95.6 ± 4.08%
viability at 40 µM (SW620 cells [7]; [12]): 8.77 ± 1.85%
viability at 2.5 µM (SW620 cells [7]; [13]): 60.65 ± 0.46%
viability at 40 µM (SW620 cells [7]; [13]): 0%
viability at 2.5 µM (SW620 cells [7]; [14]): 56.5 ± 2.09%
viability at 40 µM (SW620 cells [7]; [14]): 0%
viability at 2.5 µM (SW620 cells [7]; [15]): 48.9 ± 3.46%
viability at 40 µM (SW620 cells [7]; [15]): 0%
inhibition percentages (decrease in cell viability) (SW620 cells [7]; SW620, from 20 µM, day 2): higher than 30%
IC50 (CHO-K1 cells; CHO-K1, 24 h): 33.8 ± 2.2 µM
IC50 (CHO-K1 cells; CHO-K1, 48 h): 34.5 ± 1.37 µM

Compound: COc1cccc(/C=C2\CCC/C(=C\c3cccc(OC)c3OC)C2=O)c1OC [DMCH, (2E,6E)-2,6-Bis(2,3-Dimethoxybenzylidine) Cyclohexanone]
increase of the sub-G0/G1 population in the cell cycle [8]: more than 70%
increase of the sub-G0/G1 population in the cell cycle (metastatic SW620): more than 70%

Compound: C=C1C(=O)OC2C1CCC(COC(=O)Cn1cc(F)c(=O)n(Cc3ccc(C(F)(F)F)cc3)c1=O)=CCCC1(C)OC21 (centres unmarked) [D]
IC50 (normal 3T3 cells): 5.2 µM

Compound: O=c1[nH]c(=O)n(Cc2cn(CCOc3cc(O)c4c(=O)c(-c5ccc(O)cc5)coc4c3)nn2)cc1F [E]
IC50 (SW620 cells [9]): 50.6 ± 1.33 µM
IC50 (SW480 cells [10]): 62.7 ± 7.26 µM

Compound: COc1ccc(/C=C/c2ccc(C(=O)/C=C/c3ccc(O)c(OC)c3)cc2)c(OC)c1 [G]
IC50 (SW620 cell line): 20.4 µM
IC50 [11]: 29.2 µM

Compound: COc1cc(OC)c2c(=O)c(OCCCOc3ccccc3/C=C/C(=O)/C=C/c3ccccn3)c(-c3cc(OC)c(OC)c(OC)c3)oc2c1 [H]
IC50 (SGC-7901): 1.08 µM
IC50 (SMMC-7721): 3.18 µM
IC50 (U87): 3.93 µM
IC50 (MGC-803): 0.56 µM

Compound: COc1cc(/C=C/C(=O)C(=Cc2cccc3c2C(=O)N(C2CCC(=O)NC2=O)C3=O)C(=O)/C=C/c2ccc(O)c(OC)c2)ccc1O (centres unmarked) [I]
IC50 (U266 cells): 3.96 µM
IC50 (RPMI8226 cells): 4.55 µM
IC50 (MM1S cells): 6.44 µM

Compound: COc1cc(/C=C/C(=O)/C=C/c2cc(OC)c(OC)c(OC)c2)ccc1OCc1cn(CCOc2cc(=O)oc3ccccc23)nn1 [J]
IC50 (tubulin polymerization): 0.82 µM
IC50 (THP-1 cell line): 0.82 µM
IC50 (COLO-205 cell line): 4.68 µM
IC50 (HCT-116 cell line): 2.21 µM
